Source: patent publication US4515793A, “Phenylpiperazines which are useful in the treatment of schistosomiasis” (Edna McConnell Clark Foundation, priority 1983, dated 1985)
Read-outs that look alike come from different tables or passages of the source.

System: S. mansoni
Experiment: antischistosomal activity in mice (live worm burden, single oral dose)
Assay type: in vivo, S. mansoni (host: CD1 white female mice)
Details: Schistosoma mansoni, read-out: % Reduction Live Worm Burden; for inhibition in vivo at 160 mg/kg: mice (footnote, 125 mg/kg column)
Experimental: Tests were conducted to determine the antischistosomal activity in mice and monkeys. The results of the mice tests are reported in Tables 1 to 4 along with the chemical identifications of the compounds synthesized and tested.
The mice tests were conducted as follows:
A. Preinfection Procedures: Purina Laboratory chow (Ralston-Purina) and water were given ad libitum. All mice were housed in hanging stainless steel cages, without bedding, five per cage. They were kept in a ward with an ambient temperature of 75° F. and a relative humidity of 50-55%. Therapeutic treatment was given on Day 40 post-infection.
B. Experimental Procedures: CD1 white female mice were exposed by the tail immersion method for 30 minutes to 80 individually counted S. mansoni cercariae (WRAIR laboratory strain). The cercariae were obtained from pools of no less than 25 Biophalaria glabrata snails. Each experiment consisted of 118 mice divided into infected/water treated and infected/vehicle-treated controls, and infected/drug-treated groups (two dose levels) for six compounds. Groups of 12 mice each were treated with a compound synthesized and provided by the Warner-Lambert Company, Ann Arbor, Mich. at two dose levels. At the same time, five mice were sacrificed to establish worm burdens as infection controls. Three weeks after treatment, all remaining mice were sacrificed and perfused. Gross pathology (liver and intestines) was noted and graded (0 to +3). Worm burdens were determined and the sex of the worms recorded. Following perfusions the liver and intestines were removed and examined for the presence of […] or dead worms. […] Drugs were administered orally in Emulphor EL.
C. Drug Treatment: Treatment consisted of a single oral dose. Each drug was give initially at two dose levels, 40 mg/kg and 125 mg/kg, SID×1.
D. Criteria Used to Evaluate Therapeutic Effectiveness:
Evaluation of activity was determined by examination of the animals at 23 to 28 days after treatment. The schistosomes remaining alive after treatment were counted in the perfusates of the hepatic portal system and in press preparation of the livers. In the same preparations, the relative numbers of dead and/or encapsulated (i.e., worms may or may not be dead) parasites and the relative degree of pathology were ascertained. The efficacy of each treatment was that percentage of the control infection represented by the difference between numbers of parasites recovered from control (H2 O+vehicle) and treated animals. Thus, % efficacy is: [formula]

[1] = 40 mg/kg, single oral dose, mice
[2] = 125 mg/kg, single oral dose, mice

| Compound | inhibition in vivo at 40 mg/kg [1] [%] | inhibition in vivo at 125 mg/kg [2] [%] | inhibition in vivo at 20 mg/kg (single oral dose, mice) [%] | inhibition in vivo at 160 mg/kg (single oral dose) [%] | inhibition in vivo at 40 mg/kg [%] | inhibition in vivo at 125 mg/kg [%] |
| --- | --- | --- | --- | --- | --- | --- |
| Cc1ccsc1C(=O)CN1CCN(c2ccc(CO)c(Cl)c2)CC1 [compound 50] | -12 | 28 | – | – | – | – |
| O=C(CN1CCN(c2ccc(CO)c(Cl)c2)CC1)c1cc(Cl)c(Cl)cc1Cl [compound 13] | 86 | 98 | 53 | – | – | – |
| O=C(CN1CCN(c2ccc(CO)c(Cl)c2)CC1)c1cc(Cl)sc1Cl [compound 54] | 69 | 83 | – | – | – | – |
| O=C(CN1CCN(c2ccc(CO)c(Cl)c2)CC1)c1cccs1 [compound 45] | 10 | 68 | – | – | – | – |
| O=C(CCN1CCN(c2ccc(CO)c(Cl)c2)CC1)c1ccc(Br)cc1 [compound 42] | 84 | 98 | 82 | – | – | – |
| CS(=O)(=O)c1ccc(C(=O)CCN2CCN(c3ccc(CO)c(Cl)c3)CC2)cc1 [Cpd. 32] | 84 | 91 | 43 | – | – | – |
| O=C(CN1CCN(c2ccc(CO)c(Cl)c2)CC1)c1ccc2c(c1)Sc1ccccc1S2 [compound 55] | 54 | 68 | – | – | – | – |
| O=C(CCN1CCN(c2ccc(CO)c(Cl)c2)CC1)c1ccc(F)cc1F [compound 40] | 86 | 99 | 71 | – | – | – |
| O=C(CN1CCN(c2ccc(CO)c(Cl)c2)CC1)c1ccc(S(=O)(=O)N2CCCCC2)cc1 [Cpd. 4] | -10 | 66 | – | – | – | – |
| O=C(CCN1CCN(c2ccc(CO)c(Cl)c2)CC1)c1cc(Cl)ccc1Cl [compound 43] | 80 | 98 | 84 | – | – | – |
| O=C(CN1CCN(c2ccc(CO)c(Cl)c2)CC1)c1ccc(Cl)c([N+](=O)[O-])c1 [Cpd. 14] | 56 | – | – | 99 | – | – |
| CC(O)(CN1CCN(c2ccc(CO)c(Cl)c2)CC1)c1ccc(Cl)cc1 (stereo not shown) [Cpd. 61] | 88 | 96 | 68 | – | – | – |
| O=C(CN1CCN(c2ccc(CO)c(Cl)c2)CC1)c1ccc(C(=O)Oc2ccccc2)cc1 [compound 7] | -20 | 0 | – | – | – | – |
| COc1ccc(C(=O)CCN2CCN(c3ccc(CO)c(Cl)c3)CC2)cc1 [compound 34] | 39 | 93 | – | – | – | – |
| Nc1cccc(C(=O)CN2CCN(c3ccc(CO)c(Cl)c3)CC2)c1 [Cpd. 25, 2-[4-[3-Chloro-4-(hydroxymethyl)phenyl]-1-piperazinyl]-1-(3-aminophenyl)-ethanone] | -11 | 46 | – | – | – | – |
| O=C(CN1CCN(c2ccc(CO)c(Cl)c2)CC1)c1ccc2sc3ccccc3c2c1 [compound 56] | 51 | 77 | – | – | – | – |
| O=C(CCN1CCN(c2ccc(CO)c(Cl)c2)CC1)c1ccc2ccccc2c1 [compound 36] | 82 | 95 | 75 | – | – | – |
| Cc1csc(C(=O)CN2CCN(c3ccc(CO)c(Cl)c3)CC2)c1 [compound 52] | 25 | 69 | – | – | – | – |
| O=C(CCN1CCN(c2ccc(CO)c(Cl)c2)CC1)c1ccccc1 [compound 29] | 69 | 89 | – | – | – | – |
| Cc1cc(C)c(C(=O)CN2CCN(c3ccc(CO)c(Cl)c3)CC2)cc1C [compound 17] | 29 | – | – | 71 | – | – |
| Nc1cc(C(=O)CCN2CCN(c3ccc(CO)c(Cl)c3)CC2)ccc1Cl [Cpd. 37] | 83 | 95 | 81 | – | – | – |
| C[S+]([O-])c1ccc(C(=O)CCN2CCN(c3ccc(CO)c(Cl)c3)CC2)cc1 (stereo not shown) [compound 38] | 73 | 91 | – | – | – | – |
| O=C(CN1CCN(c2ccc(CO)c(Cl)c2)CC1)c1cccc(Cl)c1 [compound 27] | 64 | 83 | – | – | – | – |

| Compound | inhibition in vivo at 40 mg/kg [1] [%] | inhibition in vivo at 125 mg/kg [2] [%] | inhibition in vivo at 20 mg/kg (single oral dose, mice) [%] | inhibition in vivo at 160 mg/kg (single oral dose) [%] | inhibition in vivo at 40 mg/kg [%] | inhibition in vivo at 125 mg/kg [%] |
| --- | --- | --- | --- | --- | --- | --- |
| O=C(CCN1CCN(c2ccc(CO)c(Cl)c2)CC1)c1ccc(Cl)cc1Cl [compound 39] | 86 | 94 | 70 | – | – | – |
| O=C(CN1CCN(c2ccc(CO)c(Cl)c2)CC1)c1ccc(Cl)cc1Cl [Cpd. 3] | 81 | 94 | 62 | – | – | – |
| O=C(CN1CCN(c2ccc(CO)c(Cl)c2)CC1)c1cc(Cl)ccc1Cl [compound 20] | 65 | – | 72 | 99 | – | – |
| CC(C)(C)c1ccc(C(=O)CN2CCN(c3ccc(CO)c(Cl)c3)CC2)cc1 [compound 11] | 16 | – | – | 59 | – | – |
| O=C(CN1CCN(c2ccc(CO)c(Cl)c2)CC1)c1ccc(C(F)(F)F)cc1 [compound 15] | 43 | 79 | – | – | – | – |
| Cc1ccc(C(=O)CCCN2CCN(c3ccc(CO)c(Cl)c3)CC2)cc1C [compound 60] | 67 | 88 | – | – | – | – |
| O=C(CCCN1CCN(c2ccc(CO)c(Cl)c2)CC1)c1cccs1 [Cpd. 58, 4-[4-[3-Chloro-4-(hydroxymethyl)phenyl]-1-piperazinyl]-1-(2-thienyl)-1-butanone] | 20 | 77 | – | – | – | – |
| O=C(CN1CCN(c2ccc(CO)c(Cl)c2)CC1)c1cc(Cl)cc(Cl)c1 [compound 16] | 64 | 89 | – | – | – | – |
| O=C(CN1CCN(c2ccc(CO)c(Cl)c2)CC1)c1ccc(Cl)cc1O [compound 18] | 5 | – | – | 26 | – | – |
| O=C(CCN1CCN(c2ccc(CO)c(Cl)c2)CC1)c1ccc(-c2ccccc2)cc1 [compound 44] | 89 | 97 | 69 | – | – | – |
| O=C(CN1CCN(c2ccc(CO)c(Cl)c2)CC1)c1ccc(Cl)cc1 [Cpd. 1] | 42 | 67 | – | – | – | – |
| O=C(CN1CCN(c2ccc(CO)c(Cl)c2)CC1)c1ccsc1 [compound 51] | -6 | 83 | – | – | – | – |
| O=C(CN1CCN(c2ccc(CO)c(Cl)c2)CC1)c1cccc2ccccc12 [compound 24] | 3 | 64 | – | – | – | – |
| COc1ccc(C(=O)CN2CCN(c3ccc(CO)c(Cl)c3)CC2)c(OC)c1OC [compound 9] | 13 | 30 | – | – | – | – |
| O=C(CCN1CCN(c2ccc(CO)c(Cl)c2)CC1)c1ccc(Cl)c(Cl)c1Cl [compound 41] | 83 | 96 | 82 | – | – | – |
| O=C(CCN1CCN(c2ccc(CO)c(Cl)c2)CC1)c1ccco1 [Cpd. 57] | 85 | 98 | 60 | – | – | – |
| CSc1ccc(C(=O)CCN2CCN(c3ccc(CO)c(Cl)c3)CC2)cc1 [Cpd. 31] | 73 | 93 | – | – | – | – |
| O=C(CCCN1CCN(c2ccc(CO)c(Cl)c2)CC1)c1ccc(Cl)cc1 [Cpd. 59, 1-(4-Chlorophenyl)-4-[4-[3-chloro-4-(hydroxymethyl)phenyl]-1-piperazinyl]-1-butanone] | 30 | 68 | – | – | – | – |
| Cc1ccc(C(=O)CCN2CCN(c3ccc(CO)c(Cl)c3)CC2)cc1 [compound 30] | 75 | 96 | – | – | – | – |
| O=C(CN1CCN(c2ccc(CO)c(Cl)c2)CC1)c1cccc([N+](=O)[O-])c1 [Cpd. 12, 2-[4-[3-chloro-4-(hydroxymethyl)phenyl]-1-piperazinyl]-1(3-nitrophenyl)ethanone] | 31 | 73 | – | – | – | – |
| O=C1c2ccccc2CCC1N1CCN(c2ccc(CO)c(Cl)c2)CC1 (stereo not shown) [compound 22] | – | – | – | – | 73 | 87 |
| O=C(CCN1CCN(c2ccc(CO)c(Cl)c2)CC1)c1ccc(C2CCCCC2)cc1 [compound 33] | 79 | 93 | – | – | – | – |
| O=C(CN1CCN(c2ccc(CO)c(Cl)c2)CC1)c1ccc2ccccc2c1 [compound 19] | -37 | 17 | – | – | – | – |
